The test deals with human basophils. Nature of the test: Inhibition of histamine release from immunologically stimulated human basophils. It is filed as cell-based. Conditions: concentration causing 50% inhibition of histamine release, by linear regression, active if IC50 ≦ 48 µM, read-out: IC50. In a few lines: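 Leukocytes from sedimented human blood, washed in Tris-A and resuspended in Tris-ACM, were challenged with anti-IgE or antigen, with or without compound, for 60 min at 37 °C. Released histamine was measured fluorometrically after OPT derivatization and expressed as percent of total (perchloric acid lysate), corrected for spontaneous release.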

Like-named read-outs stand apart in the source and are kept apart here.

With `Oc1ccc(Nc2nccc(-c3ccncc3)n2)cc1` [4-[[4-(4-Pyridinyl)-2-primidinyl]amino]phenol], the IC50 (Homo sapiens) worked out at 3.3 µM.

Regarding `Cc1ccc(-c2ccnc(Nc3cccc(N(C)C)c3)n2)s1` [N,N-Dimethyl-N'-[4-(5-methyl-2-thienyl)-2-pyrimidinyl]-1,3-benzenediamine], for the setting “Homo sapiens”, the IC50 stood at 5.7 µM.

For `Cc1cccc(Nc2nccc(-c3ccc(C)o3)n2)c1` [4-(5-Methyl-2-furanyl)-N-(3-methylphenyl)-2-pyrimidinamine], the 50% inhibitory concentration (IC50) (Homo sapiens) came to 2 µM.

For the compound `COc1ccc(Nc2nccc(-c3cccnc3)n2)cc1` [N-(4-Methoxyphenyl)-4-(3-pyridinyl)-2-pyrimidinamine, phosphate], the IC50 (phosphate) was 3.2 µM.

In the case of `CN(C)c1cccc(Nc2nccc(-c3ccncc3)n2)c1` [N,N-Dimethyl-N'-[4-(4-pyridinyl)-2-pyrimidinyl]-1,3-benzened] [N,N-Dimethyl-N'-[4-(4-pyridinyl)-2-pyrimidinyl]-1,3-benzenediamine], the IC50 stood at 3.5 µM.

(Values after patent EP0233461B2, “4,5,6-Substituted-2-pyrimidinamines” (AMERICAN CYANAMID COMPANY, priority 1986, dated 1987).)
